Data as given in PMC10628124, “Elevator-like movements of prestin mediate outer hair cell electromotility” (Nature Communications, 2023).

What was measured:
Assay type in all cases: cell-based
zPres [1] = target: T1, zPres (Danio rerio, UniProt Q7T2C4, R505K); assay: whole-cell patch clamp, non-linear capacitance, CHO cells; conditions: 10 mM extracellular salicylate; 160 mM intracellular Cl-; pH 7.4; zPres-GFP; inhibition
T1 construct: gene slc26a5; full length; C-terminal GFP fusion in CHO cells (pEGFP-N1); in Xenopus oocytes (pGEMHE) with functionally silent R505K; homodimer
T1 sequence (Q7T2C4 1-739 R505K): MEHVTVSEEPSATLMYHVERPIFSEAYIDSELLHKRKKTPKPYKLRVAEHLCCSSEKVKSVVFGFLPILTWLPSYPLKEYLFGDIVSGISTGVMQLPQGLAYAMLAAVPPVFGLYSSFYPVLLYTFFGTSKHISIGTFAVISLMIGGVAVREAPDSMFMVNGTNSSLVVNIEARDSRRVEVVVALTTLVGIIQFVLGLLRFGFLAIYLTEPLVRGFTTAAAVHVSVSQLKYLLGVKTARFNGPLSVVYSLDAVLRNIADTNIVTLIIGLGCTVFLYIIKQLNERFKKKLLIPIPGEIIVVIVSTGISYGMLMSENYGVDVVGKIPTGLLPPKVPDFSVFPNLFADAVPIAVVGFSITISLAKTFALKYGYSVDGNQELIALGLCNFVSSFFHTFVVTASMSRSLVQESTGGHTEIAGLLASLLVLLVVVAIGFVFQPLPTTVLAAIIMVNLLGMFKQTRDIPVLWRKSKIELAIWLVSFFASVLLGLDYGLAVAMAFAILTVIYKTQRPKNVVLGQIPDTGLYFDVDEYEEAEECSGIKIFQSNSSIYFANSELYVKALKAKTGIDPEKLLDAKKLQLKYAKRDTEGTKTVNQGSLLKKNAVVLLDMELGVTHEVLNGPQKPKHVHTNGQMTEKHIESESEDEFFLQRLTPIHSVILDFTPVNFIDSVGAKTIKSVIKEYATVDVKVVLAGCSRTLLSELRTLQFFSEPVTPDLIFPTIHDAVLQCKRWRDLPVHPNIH

rPres = target: T2, rPres (Rattus norvegicus, UniProt Q9EPH0, R150C); assay: voltage-clamp fluorometry, Xenopus oocytes; conditions: 10 mM extracellular salicylate; labelled at C150 with MTS-TAMRA; signal suppressed, V1/2 depolarized
T2 construct: gene Slc26a5; full length; C-terminal 6xHis tag in Xenopus oocytes (pGEMHE); homodimer
T2 sequence (Q9EPH0 1-744 R150C): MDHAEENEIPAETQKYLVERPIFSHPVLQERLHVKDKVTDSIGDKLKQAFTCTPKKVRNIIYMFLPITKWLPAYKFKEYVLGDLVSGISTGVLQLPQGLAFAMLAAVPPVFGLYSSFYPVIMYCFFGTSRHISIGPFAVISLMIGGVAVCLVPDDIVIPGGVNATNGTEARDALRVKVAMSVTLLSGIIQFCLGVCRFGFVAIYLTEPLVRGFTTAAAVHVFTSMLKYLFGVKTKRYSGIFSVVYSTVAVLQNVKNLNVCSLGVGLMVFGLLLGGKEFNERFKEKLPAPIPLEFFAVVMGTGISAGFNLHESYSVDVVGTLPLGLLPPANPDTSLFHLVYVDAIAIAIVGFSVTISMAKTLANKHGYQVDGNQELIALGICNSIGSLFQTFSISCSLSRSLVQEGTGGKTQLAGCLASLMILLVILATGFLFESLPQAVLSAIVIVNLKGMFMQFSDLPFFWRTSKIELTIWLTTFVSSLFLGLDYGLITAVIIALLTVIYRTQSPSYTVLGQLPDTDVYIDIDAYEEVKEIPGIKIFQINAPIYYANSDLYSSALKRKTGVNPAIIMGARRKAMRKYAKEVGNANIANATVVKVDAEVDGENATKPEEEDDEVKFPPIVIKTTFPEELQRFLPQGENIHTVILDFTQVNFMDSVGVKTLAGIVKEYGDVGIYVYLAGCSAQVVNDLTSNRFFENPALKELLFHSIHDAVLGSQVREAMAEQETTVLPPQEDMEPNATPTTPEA

zPres [2] = target: T3, zPres (Danio rerio, UniProt Q7T2C4, R505K, form not given); assay: whole-cell patch clamp, oxalate-chloride counter-transport current, CHO cells; conditions: 106 mM intracellular oxalate; extracellular chloride; current at 0 mV; GFP fusion
T3 construct: gene slc26a5; full length; C-terminal GFP fusion in CHO cells (pEGFP-N1); in Xenopus oocytes (pGEMHE) with functionally silent R505K; homodimer
T3 sequence (Q7T2C4 1-739 R505K): T1 sequence (Q7T2C4 1-739 R505K)

Row | SMILES | whole-cell patch clamp, non-linear capacitance, CHO cells (zPres [1]) | voltage-clamp fluorometry, Xenopus oocytes (rPres) | whole-cell patch clamp, oxalate-chloride counter-transport current, CHO cells (zPres [2])
1 | O=C(O)c1ccccc1O [salicylate] | NLC recorded from cells expressing zPres was readily inhibited by salicylate | salicylate, suppressed the voltage-dependent fluorescence signals of rPres-R150C-TAMRA | 
2 | O=C(O)C(=O)O [oxalate] |  |  | monitored as the electrogenic oxalate-chloride counter-transport current by whole-cell patch-clamping
